Earlier results as cited in PMC8026479 (Cancer Chemotherapy and Pharmacology, 2021).

Conditions: human, in vivo; cited from earlier work

CN1CCN(c2ccc(Nc3ncc4cc5n(c4n3)C3(CCCCC3)CNC5=O)nc2)CC1 [trilaciclib]
most commonly reported AEs: headache and nausea | severe AEs: No severe AEs were reported | time to spontaneous resolution of all moderate AEs: ≤ 24 h
